Results: PubChem BioAssay (NCI)
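Growth conditions: 96-well plates. Treatment: test compound, 48 hours, 5 concentrations. Analysis: linear interpolation between bracketing concentrations; unreached endpoints set to highest concentration. GI50 marks 50% less growth. TGI marks complete inhibition of growth.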

Assays:
Assay in all cases: inhibition of tumour cell growth, NCI panel, 48 h
[1] = test system: A498 renal
[2] = test system: HL-60(TB) leukemia
[3] = test system: NCI-H460 lung
[4] = test system: NCI-H522 lung
[5] = test system: SF-295 CNS
[6] = test system: SK-OV-3 ovarian
[7] = test system: SNB-19 CNS
[8] = test system: MDA-MB-435
[9] = test system: PC-3 prostate
[10] = test system: EKVX NSCLC

SMILES	TGI [1] [µM]	TGI [2] [µM]	TGI [3] [µM]	TGI [4] [µM]	TGI [5] [µM]	TGI [6] [µM]	TGI [7] [µM]	GI50 [2] [µM]	GI50 [8] [µM]	TGI [8] [µM]	GI50 [3] [µM]	GI50 [4] [µM]	GI50 [9] [µM]	TGI [9] [µM]	GI50 [5] [µM]	GI50 [6] [µM]	GI50 [7] [µM]	TGI [10] [µM]
COc1cccc(N2C(=O)/C(=C/c3ccc(N(CCC#N)CCC#N)cc3)N=C2c2cc([N+](=O)[O-])ccc2Cl)c1	> 100	> 100	> 100	> 100	> 100	> 100	> 100	–	–	–	–	–	–	–	–	–	–	–
CS(=O)(=O)O[C@H]1C(=O)N(c2cc3c4ccccc4ccc3c3ccccc23)[C@@H]1c1ccccn1	–	> 100	> 100	> 100	11.8	> 100	> 100	0.309	0.217	0.597	2.39	0.573	0.399	> 100	0.291	0.627	0.749	–
CC12CC/C(=N/NC(N)=O)C3C1CCCC32	> 100	> 100	> 100	> 100	> 100	> 100	> 100	–	–	–	–	–	–	–	–	–	–	–
CC(=O)N(C)c1cc(NCc2ccccc2)ccc1OCc1ccccc1	30.8	77.9	33.4	34	29.6	43.1	35.8	–	–	32.2	–	–	–	–	–	–	–	42.3
Cc1ccc(C(=O)C(c2nc3n(c2O)C(=N)N=N3)c2nc3n(c2O)C(=N)N=N3)cc1 (stereo not drawn)	> 100	> 100	> 100	> 100	> 100	> 100	> 100	–	–	–	–	–	–	–	–	–	–	> 100
O=c1c2ccccc2nc2n1CCc1c-2[nH]c2cc3c(cc12)OCO3	–	> 25	> 25	> 25	> 25	> 25	21.9	–	–	> 25	1.55	–	–	> 25	–	–	–	> 25
COC(=O)C(=O)C(C#N)c1cccc(Cl)c1 (stereo not drawn)	> 100	> 100	> 100	> 100	> 100	> 100	> 100	–	–	–	–	–	–	–	–	–	–	> 100
O=C[C@]12CC=C3OC4OC5(CCCCC5)OC4[C@H]3[C@H]1C(=O)C=CC2=O (stereo partly drawn)	> 100	2.78	58.7	22.1	> 100	> 100	> 100	–	–	–	–	–	–	–	–	–	–	39.8
Cn1nc(-c2ccccc2)c2c(/C=C/c3ccc(Cl)cc3)onc2c1=O	–	–	> 100	45.5	68.8	–	> 100	–	–	–	–	–	–	–	–	–	–	> 100
Cc1cc2nc3c(=O)[nH]c(=O)nc-3n(CC(O)C(O)C(O)CO)c2cc1N (stereo not drawn)	> 100	> 100	> 100	–	> 100	> 100	> 100	–	–	–	–	–	–	–	–	–	–	> 100
CC12CCCC(C#N)(C1)OC2=O (stereo not drawn)	> 100	> 100	> 100	> 100	> 100	> 100	> 100	–	–	–	–	–	–	–	–	–	–	> 100
